This is an account of results in patent USRE49517E1, “Pyrazoles” (Janssen Pharmaceuticals, Inc., priority 2014, dated 2023).

Structures are written as SMILES. pIC50: −log10 of the molar value.

This series has as its target human ERG receptor (Homo sapiens (Human), UniProt Q12809). Nature of the series: HERGBD: inhibition of specific [3H]-Dofetilide binding to the hERG receptor. The note with it: HEK cell membranes. Here is the method:
Inhibition of Specific Binding to the hERG—Receptor (HERGBD)
A HEK cell line with stable transfected human ERG receptor was used for the assay. The cells were grown adherently and maintained in DULBECCOS' MEM medium with 10% FBS, 1% non-essential amino acids, 1% Penicillin/Streptomycin and 400 μg/ml G418 (Calbiochem).
For binding assays and membrane preparations the cell culture medium was removed, cells were washed with PBS. Crude membranes for radioligand binding experiments were prepared by scraping the cells off the dishes in ice cold 20 mM HEPES/0.1 mM KCl/pH 7.2. […]
Binding was terminated by filtration of the incubated membrane preparations using Filtermat B (Pharmacia, Uppsala Sweden) and a Micro Cell Harvester (Skatron, Lier, Norway). The Filtermat B had been presoaked with 1% polyethylen imine and carefully washed with 0.05 M Tris/HCl-buffer pH=7.7 after the filtration to separate free and bound radioactivity. The filters were counted in a scintillation counter (Betaplate 1205, Berthold, Wildbad, Germany) in order to determine the specific binding of [^3H]-Dofetilide.
The optimal amount of membrane preparation in the assay was determined and optimized for each membrane preparation separately in front of using the membranes in compound testing. […]

human ERG receptor, sequence (Q12809 whole entry): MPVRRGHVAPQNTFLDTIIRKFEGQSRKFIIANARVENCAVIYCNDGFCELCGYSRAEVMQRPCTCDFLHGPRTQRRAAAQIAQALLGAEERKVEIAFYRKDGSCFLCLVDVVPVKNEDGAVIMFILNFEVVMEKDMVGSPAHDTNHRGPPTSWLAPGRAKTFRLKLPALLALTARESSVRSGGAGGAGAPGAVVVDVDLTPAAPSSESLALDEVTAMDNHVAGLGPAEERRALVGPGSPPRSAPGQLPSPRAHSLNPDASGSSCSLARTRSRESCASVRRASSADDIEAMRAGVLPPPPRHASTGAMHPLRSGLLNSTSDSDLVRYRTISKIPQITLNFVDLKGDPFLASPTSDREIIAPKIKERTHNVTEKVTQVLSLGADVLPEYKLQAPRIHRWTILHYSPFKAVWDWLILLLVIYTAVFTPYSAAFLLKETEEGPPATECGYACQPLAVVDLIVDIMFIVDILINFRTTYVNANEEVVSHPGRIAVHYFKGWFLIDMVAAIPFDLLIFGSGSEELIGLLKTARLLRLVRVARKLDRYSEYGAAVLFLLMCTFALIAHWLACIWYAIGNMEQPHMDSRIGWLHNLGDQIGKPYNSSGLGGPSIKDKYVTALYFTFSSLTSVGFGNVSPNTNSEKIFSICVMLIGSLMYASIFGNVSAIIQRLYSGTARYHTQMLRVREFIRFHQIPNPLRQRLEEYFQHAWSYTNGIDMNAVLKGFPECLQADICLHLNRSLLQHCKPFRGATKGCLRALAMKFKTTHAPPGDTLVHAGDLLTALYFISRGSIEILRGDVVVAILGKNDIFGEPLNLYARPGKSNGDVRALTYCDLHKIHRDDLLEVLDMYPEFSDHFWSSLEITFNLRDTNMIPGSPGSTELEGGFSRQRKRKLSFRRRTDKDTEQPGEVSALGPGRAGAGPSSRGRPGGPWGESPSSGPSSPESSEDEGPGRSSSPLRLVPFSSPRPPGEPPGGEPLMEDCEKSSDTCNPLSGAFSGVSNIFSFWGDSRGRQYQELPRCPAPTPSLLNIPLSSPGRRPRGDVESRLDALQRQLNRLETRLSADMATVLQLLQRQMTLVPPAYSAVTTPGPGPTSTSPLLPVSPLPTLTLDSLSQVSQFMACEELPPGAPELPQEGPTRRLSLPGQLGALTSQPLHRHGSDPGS

On to `Cn1ccc(Cn2cc(-c3cccc(C(F)(F)F)c3)cn2)n1` [Example 49, 1-methyl-3-[[4-[3-(trifluoromethyl)phenyl]pyrazol-1-yl]methyl]pyrazole], for which the pIC50 is 4.72.

Turning to `Cc1cc(Cn2cc(-c3ccc(C(F)(F)F)cc3)cn2)n(C)n1` [Example 51, 1,3-Dimethyl-5-[[4-[4-(trifluoromethyl)phenyl]pyrazol-1-yl]methyl]-Pyrazole], the pIC50 is 3.86.

What is called pIC50 is −log10 of the IC50, conventionally taken in molar units. Read a high pIC50 as a low IC50.
